Experimental data from paper PMC6934184, “Selective DNA-PKcs inhibition extends the therapeutic index of localized radiotherapy and chemotherapy” (The Journal of Clinical Investigation, 2019).

Target: T1, EPHA5 (Homo sapiens, UniProt P54756)
T1 construct: purchased Thermo Fisher Scientific (Life Technologies) SelectScreen
Experiment: SelectScreen Z'LYTE
Format: biochemical
Outline: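 Percent values come from Thermo SelectScreen profiling of NU5455, combining activity and binding assays. CSF1R was run in Z'LYTE format at Km app ATP, and CAMK1 in Adapta format with ATP listed at 10.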

T1 sequence (P54756 25-1037): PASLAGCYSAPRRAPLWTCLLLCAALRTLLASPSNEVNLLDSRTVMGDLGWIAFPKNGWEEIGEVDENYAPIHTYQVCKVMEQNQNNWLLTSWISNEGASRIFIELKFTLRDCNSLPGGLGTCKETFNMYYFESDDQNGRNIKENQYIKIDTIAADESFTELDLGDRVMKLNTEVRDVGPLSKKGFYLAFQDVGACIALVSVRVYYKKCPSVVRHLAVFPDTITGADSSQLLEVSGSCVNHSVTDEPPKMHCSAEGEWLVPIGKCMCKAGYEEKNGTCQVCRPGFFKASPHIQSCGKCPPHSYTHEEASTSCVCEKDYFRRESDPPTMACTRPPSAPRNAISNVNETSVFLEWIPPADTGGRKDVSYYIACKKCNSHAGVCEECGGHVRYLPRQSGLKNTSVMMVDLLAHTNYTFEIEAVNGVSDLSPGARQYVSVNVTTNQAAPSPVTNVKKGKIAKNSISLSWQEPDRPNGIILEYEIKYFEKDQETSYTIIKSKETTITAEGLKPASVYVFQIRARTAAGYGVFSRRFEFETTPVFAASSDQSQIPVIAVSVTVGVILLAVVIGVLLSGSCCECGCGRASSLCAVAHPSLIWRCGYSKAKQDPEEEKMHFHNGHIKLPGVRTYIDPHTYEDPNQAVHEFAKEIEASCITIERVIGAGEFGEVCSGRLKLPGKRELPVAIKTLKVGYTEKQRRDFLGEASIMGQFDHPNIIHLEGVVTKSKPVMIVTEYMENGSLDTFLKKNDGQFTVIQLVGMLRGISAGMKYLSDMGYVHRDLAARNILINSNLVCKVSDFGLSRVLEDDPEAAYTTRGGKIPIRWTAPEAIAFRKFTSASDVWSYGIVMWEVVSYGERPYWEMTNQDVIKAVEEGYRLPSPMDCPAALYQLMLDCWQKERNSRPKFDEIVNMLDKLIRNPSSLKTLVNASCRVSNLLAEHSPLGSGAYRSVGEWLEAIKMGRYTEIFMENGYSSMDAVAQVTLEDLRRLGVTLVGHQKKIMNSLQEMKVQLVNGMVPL

## CN(C(=O)CN1CCOCC1)c1ccc2sc3c(-c4cccc5c(=O)cc(N6CC7CCC(C6)O7)oc45)cccc3c2c1 [NU5455]
  inhibition at 1 µM: 5.1%
